Results: ChEMBL document CHEMBL2331107, “Novel fluorescent risedronates: synthesis, photodynamic inactivation and imaging of Bacillus subtilis” (2013)
Active and inactive are the calls of the source. No cut-off for these calls is given here.

Legend:
Bacillus subtilis [1] = assay: Antimicrobial activity against Bacillus subtilis ATCC 6633 assessed as photodynamic inactivation measured as lethality at 10 uM; assay type: functional
Bacillus subtilis [2] = assay: Antimicrobial activity against Bacillus subtilis ATCC 6633 measured after 24 hrs at 37 degC; assay type: functional; conditions: ATCC 6633, 24 h

| SMILES | Activity (Bacillus subtilis [1]) | MIC (Bacillus subtilis [2]) [µg/mL] |
| --- | --- | --- |
| O=C(O)c1cc2ccccc2oc1=O | inactive | – |
| O=C(NCC(O)C[n+]1cccc(CC(O)(P(=O)(O)O)P(=O)(O)O)c1)c1ccccc1 (stereo not drawn) | – | > 128 |
| O=C(NCC(O)C[n+]1cccc(CC(O)(P(=O)(O)O)P(=O)(O)O)c1)c1ccccc1O (stereo not drawn) | – | > 128 |
| O=C(NCC(O)C[n+]1cccc(CC(O)(P(=O)(O)O)P(=O)(O)O)c1)c1cc2ccccc2oc1=O (stereo not drawn) | 91% | > 128 |
| O=C(O)c1cc2c(ccc3ccccc32)oc1=O | inactive | – |
| O=C(NCC(O)C[n+]1cccc(CC(O)(P(=O)(O)O)P(=O)(O)O)c1)c1cc2c(ccc3ccccc32)oc1=O (stereo not drawn) | 47% | > 128 |
